Assay [1] concerns clinically isolated Acinetobacter baumannii. The following applies: found in 2017; cited from earlier work.
Assay [2] concerns CR-Ab pneumonia model mice. Kind of assay: Protective effect in CR-Ab pneumonia model mice (7-day survival). The assay is classed as in vivo, Male C57BL/6 mice. As to conditions: intraperitoneal, once a day, after 7 days.
In assay [3] the test system is carbapenem antibiotic-resistant Acinetobacter baumannii CR-Ab (157 clinically isolated strains). Kind of assay: microbe, parasite or virus in culture. As to conditions: read-out: Cumulative microbial inhibition rates (%) against CR-Ab. The text has this: Strains: 157 clinically isolated strains of carbapenem antibiotic-resistant Acinetobacter baumannii were selected and named as CR-Ab.
Drugs: Sulbactam and ceftazidime were taken and prepared into compositions of different ratios. The method was fixing the amount of sulbactam and gradually reducing the amount of ceftazidime to obtain compositions of sulbactam and ceftazidime at weight ratios of 1:1, 1:0.9, 1:0.8, 1:0.6, 1:0.4, 1:0.2 and 1:0.1, respectively. A sulbactam-only preparation was additionally used as a control.
The cumulative microbial inhibition rate was used to evaluate the microbial inhibition effects of the drugs, respectively. The cumulative microbial inhibition rate was defined as the microbial inhibition rate of a drug at a certain concentration plus all the microbial inhibition rates below that concentration.

Here are results for 3 molecules from patent US12194049B2, “Composition for treating carbapenem antibiotic-resistant Acinetobacter baumannii infection” (priority 2019, dated 2025).

Broadly, the inhibition is the share of the control response that was lost under treatment.

Turning to `C[C@@H](O)[C@H]1C(=O)N2C(C(=O)O)=C(S[C@@H]3CN[C@H](C(=O)N(C)C)C3)[C@H](C)[C@H]12` [Meropenem, meropenem], the resistance rate entry in assay [1] was “up to 69.3%”. The “Survival of CR-Ab pneumonia model mice” value in assay [2] (High dose (30 mg/kg)) is 3/15; in assay [2] (Low dose (10 mg/kg)), 2/15.

Turning to `CC1(C)[C@H](C(=O)O)N2C(=O)C[C@H]2S1(=O)=O` [Single sulbactam, (2S,5R)-3,3-dimethyl-7-oxo-4-thia-1-azabicyclo[3.2.0]heptane-2-carboxylate-4,4-dioxide], in assay [3], the inhibition at 0.125 µg/mL amounted to 0%, the inhibition at 0.25 µg/mL was determined as 0%, the inhibition at 0.5 µg/mL was determined as 0% and the inhibition at 1 µg/mL came out at 7%. Moreover, in assay [3], the inhibition at 2 µg/mL was determined as 17%, the inhibition at 4 µg/mL is 32%, the inhibition at 8 µg/mL amounted to 48% and the inhibition at 16 µg/mL came to 64%. Also, in assay [3], the inhibition at 32 µg/mL turned out to be 84%, the inhibition at 64 µg/mL came to 94%, the inhibition at 128 µg/mL is 100% and the inhibition at 256 µg/mL stood at 100%. Moreover, the inhibition at 512 µg/mL in assay [3] worked out at 100%.

Take `CC(C)(O/N=C(\C(=O)N[C@@H]1C(=O)N2C(C(=O)[O-])=C(C[n+]3ccccc3)CS[C@H]12)c1csc(N)n1)C(=O)O` [ceftazidime, (6R,7R)-7-[[(2Z)-2-(2-Aminothiazol-4-yl)-2-[(1-carboxy-1-methylethoxy)imino]acetyl]amino]-8-oxo-3-[(1-pyridinio)methyl]-5-thia-1-azabicyclo[4.2.0]oct-2-ene-2-carboxylate]: the resistance rate entry in assay [1] is given as “up to 72%”.
